Measured values from publication PMC6982223, “Design, Synthesis and Molecular Modeling Study of Conjugates of ADP and Morpholino Nucleosides as A Novel Class of Inhibitors of PARP-1, PARP-2 and PARP-3” (International Journal of Molecular Sciences, 2019).

Columns and labels:
[1] = biological target: T1, Human recombinant poly(ADP-ribose)-polymerase 1 (Homo sapiens, UniProt P09874); experiment: autopoly(ADP-ribosyl)ation of PARP-1, [32P]NAD+ incorporation; format: biochemical; details: for Residual PARP-1 activity / remaining activity at 1000 µM: in the presence of 1 mM compound; for remaining activity at 1000 µM: read-out: Residual PARP-1 activity (converted); for IC50: autopoly(ADP-ribosyl)ation, 0.3 mM NAD+
T1 construct: made in house
Excerpt: (§1) The oligonucleotides were purchased from Biosset (Novosibirsk, Russia). The reagents, solvents and the basic components of buffers were purchased from Sigma (St. Louis, MO, USA), Acros organics (Waltham, MA, USA) or Promega (Madison, WI, USA). γ–[^32P]-ATP and α–[^32P]-ATP (with specific activities of 5000 and 3000 Ci/mmol, respectively) were from the Laboratory of Biotechnology (Institute of Chemical Biology and Fundamental Medicine, Novosibirsk, Russia). T4 polynucleotide kinase was from Biosan (Novosibirsk, Russia). SUMO fusion expression vector pETHSUL (GenBank: EF205333.1) and pSUPER vector coding for the catalytic domain of the S. cerevisiae SUMO hydrolase dtUD1 were kindly provided by Dr. P. Loll (Drexel University, Philadelphia, USA). His6 and Strep-II double-tagged dtUD1 hydrolase was expressed and purified as described in ref. [81]. Human recombinant poly(ADP-ribose)-polymerase 1 (EC 2.4.2.30) was prepared as described previously. Murine recombinant poly(ADP-ribose)-polymerase 2 (EC 2.4.2.30) was purified as described previously. Plasmid encoding human PARP-3 was kindly provided by Dr. A. Ishchenko (Gustave Roussy, Université Paris-Saclay, France). Poly(ADP-ribose)-polymerase 3 (EC 2.4.2.30) was purified according to [6].
(§2) The reaction of autopoly(ADP-ribosyl)ation was carried out as follows: for PARP-1 50 mM tris-HCl, pH 8.0, 20 mM MgCl2, 150 mM NaCl, and 7 mM β-mercaptoethanol, activated DNA 2 OE/mL, 0.3 mM [^32P] NAD+ at 37 °C. The reaction was initiated by adding PARP-1 to 200 nM and the reaction mixtures were incubated for 1.5 min. For PARP-2: 50 mM tris-HCl, pH 8.0, 3 mM spermin, 150 mM NaCl, and 7 mM β-mercaptoethanol, activated DNA 2 OE/mL, 0.6 mM [^32P] NAD+ at 37 °C. The reaction was initiated by adding PARP-2 to 800 nM and the reaction mixtures were incubated for 5 min. The reaction was stopped by placing 10 μL aliquots onto Whatman 1 paper filters soaked with 5 % TCA. The filters were washed with 5% TCA for four times and dried in air after the removal of TCA with 90% ethanol. The incorporation of radioactivity into the product was calculated with a Tri-Carb 2800 scintillation counter (Perkin Elmer, Waltham, MA, USA) according to the Cherenkov method or using Typhoon FLA 9500 scanner (GE Healthcare, Chicago, IL, USA). To determine the IC50 value of inhibitors (concentration of the compound required reducing the enzyme activity by 50%), we studied the activity of the enzyme at different concentrations of inhibitors. Measurements were done in at least two independent experiments. IC50 values were calculated using the Origin Pro 8.0 software by nonlinear regression analysis.

[2] = biological target: T2, Murine recombinant poly(ADP-ribose)-polymerase 2 (Mus musculus, UniProt O88554); experiment: autopoly(ADP-ribosyl)ation of PARP-2, [32P]NAD+ incorporation; format: biochemical; details: for Residual PARP-2 activity / remaining activity at 1000 µM: in the presence of 1 mM compound; for IC50: autopoly(ADP-ribosyl)ation, 0.6 mM NAD+; for remaining activity at 1000 µM: read-out: Residual PARP-2 activity (converted)
T2 construct: made in house
Excerpt: as §1, §2

T2 sequence (O88554 whole entry): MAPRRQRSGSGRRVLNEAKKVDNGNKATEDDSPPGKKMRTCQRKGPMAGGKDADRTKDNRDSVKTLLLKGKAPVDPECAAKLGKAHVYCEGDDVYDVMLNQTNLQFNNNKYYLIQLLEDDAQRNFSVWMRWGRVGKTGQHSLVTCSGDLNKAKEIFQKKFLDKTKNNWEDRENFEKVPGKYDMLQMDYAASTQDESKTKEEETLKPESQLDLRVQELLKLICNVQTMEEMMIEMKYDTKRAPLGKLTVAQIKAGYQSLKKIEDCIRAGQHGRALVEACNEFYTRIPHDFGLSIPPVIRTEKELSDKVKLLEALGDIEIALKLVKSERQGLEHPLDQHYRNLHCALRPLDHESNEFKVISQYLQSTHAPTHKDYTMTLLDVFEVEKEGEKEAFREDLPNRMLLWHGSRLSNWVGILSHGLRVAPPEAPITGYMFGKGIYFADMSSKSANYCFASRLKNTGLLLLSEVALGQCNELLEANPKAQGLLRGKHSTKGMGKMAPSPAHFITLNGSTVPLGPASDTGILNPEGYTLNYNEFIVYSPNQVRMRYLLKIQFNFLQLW
T1 sequence (P09874 whole entry): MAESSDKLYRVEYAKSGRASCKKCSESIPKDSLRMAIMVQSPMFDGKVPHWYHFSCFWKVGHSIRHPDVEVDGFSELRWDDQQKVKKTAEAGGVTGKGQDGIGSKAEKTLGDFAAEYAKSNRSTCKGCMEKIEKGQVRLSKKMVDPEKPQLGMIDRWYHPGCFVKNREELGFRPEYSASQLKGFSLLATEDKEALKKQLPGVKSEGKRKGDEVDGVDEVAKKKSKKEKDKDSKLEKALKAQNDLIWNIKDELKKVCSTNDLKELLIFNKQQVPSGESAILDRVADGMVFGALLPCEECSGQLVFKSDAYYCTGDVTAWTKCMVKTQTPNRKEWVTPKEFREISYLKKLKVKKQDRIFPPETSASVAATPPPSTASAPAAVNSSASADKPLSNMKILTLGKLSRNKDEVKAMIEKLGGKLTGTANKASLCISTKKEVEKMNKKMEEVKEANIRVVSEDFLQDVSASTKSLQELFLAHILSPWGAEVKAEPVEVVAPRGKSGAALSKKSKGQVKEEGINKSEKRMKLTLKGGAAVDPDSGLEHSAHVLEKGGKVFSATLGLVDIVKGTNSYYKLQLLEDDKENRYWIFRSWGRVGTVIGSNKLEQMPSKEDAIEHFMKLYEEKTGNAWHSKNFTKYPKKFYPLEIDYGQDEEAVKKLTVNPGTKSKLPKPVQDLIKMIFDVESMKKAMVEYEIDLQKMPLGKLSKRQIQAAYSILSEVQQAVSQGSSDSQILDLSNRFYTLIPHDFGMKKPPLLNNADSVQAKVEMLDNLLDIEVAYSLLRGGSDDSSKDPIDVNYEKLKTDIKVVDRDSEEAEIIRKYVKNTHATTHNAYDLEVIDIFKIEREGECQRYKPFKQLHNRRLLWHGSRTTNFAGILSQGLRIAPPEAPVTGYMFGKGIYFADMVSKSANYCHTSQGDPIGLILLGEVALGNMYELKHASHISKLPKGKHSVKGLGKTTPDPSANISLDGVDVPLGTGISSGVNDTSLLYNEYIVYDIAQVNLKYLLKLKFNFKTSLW

| SMILES | remaining activity at 1000 µM [1] | IC50 [2] | remaining activity at 1000 µM [2] | further results |
| --- | --- | --- | --- | --- |
| Nc1ncnc2c1ncn2[C@@H]1O[C@H](CO)[C@@H](O)[C@H]1O [Ado, reference compound] |  |  |  | Residual PARP-1 activity [1]: 77% ± 21%; Residual PARP-2 activity [2]: 86% ± 1% |
| Nc1ncnc2c1ncn2C1CNCC(COP(=O)(O)OP(=O)(O)OCC2OC(n3cnc4c(N)ncnc43)C(O)C2O)O1 (stereo not drawn) [Compound 4A] | 80% | 421 ± 6 µM |  |  |
| Nc1ncnc2c1ncn2C1OC(COP(=O)(O)OP(=O)(O)OCC2CNCC(n3cc(Br)c(=O)[nH]c3=O)O2)C(O)C1O (stereo not drawn) [Compound 4BrU] | 36% | 474 µM |  |  |
| Nc1ccn(C2CNCC(COP(=O)(O)OP(=O)(O)OCC3OC(n4cnc5c(N)ncnc54)C(O)C3O)O2)c(=O)n1 (stereo not drawn) [Compound 4C] | 96% |  | 66% |  |
| Nc1ncnc2c1ncn2C1OC(COP(=O)(O)OP(=O)(O)OCC2CNCC(n3cc(Cl)c(=O)[nH]c3=O)O2)C(O)C1O (stereo not drawn) [Compound 4ClU] | 57.5% |  | 46.8% |  |
| Nc1nc2c(ncn2C2CNCC(COP(=O)(O)OP(=O)(O)OCC3OC(n4cnc5c(N)ncnc54)C(O)C3O)O2)c(=O)[nH]1 (stereo not drawn) [Compound 4G] | 45.5% |  | 34% |  |
| Cc1cn(C2CNCC(COP(=O)(O)OP(=O)(O)OCC3OC(n4cnc5c(N)ncnc54)C(O)C3O)O2)c(=O)[nH]c1=O (stereo not drawn) [Compound 4T] | 40% | 474 µM |  |  |
| Nc1ncnc2c1ncn2C1OC(COP(=O)(O)OP(=O)(O)OCC2CNCC(n3ccc(=O)[nH]c3=O)O2)C(O)C1O (stereo not drawn) [Compound 4U] | 93% |  | 67% |  |
| O=c1[nH]c(=O)n([C@@H]2O[C@H](CO)[C@@H](O)[C@H]2O)cc1Br [Compound 5-Br-Urd, 5-Br-uridine, reference compound] |  | 190 ± 16 µM |  | IC50 [1]: 244 ± 83 µM |
| O=c1[nH]c(=O)n([C@@H]2O[C@H](CO)[C@@H](O)[C@H]2O)cc1Cl [Compound 5-Cl-Urd, 5-Cl-uridine, reference compound] |  | 196 ± 25 µM |  | Residual PARP-1 activity [1]: 82% ±17% |
| O=c1[nH]c(=O)n([C@@H]2O[C@H](CO)[C@@H](O)[C@H]2O)cc1I [Compound 5-I-Urd, 5-I-uridine, reference compound] |  | 26.5 ± 3.5 µM |  | IC50 [1]: 49 ± 9 µM |
| Nc1ncnc2c1ncn2C1OC(COP(=O)(O)OP(=O)(O)NCC2CNCC(n3cc(Br)c(=O)[nH]c3=O)O2)C(O)C1O (stereo not drawn) [Compound 10BrU] | 60% | 254 µM |  |  |
| Nc1ccn(C2CNCC(CNP(=O)(O)OP(=O)(O)OCC3OC(n4cnc5c(N)ncnc54)C(O)C3O)O2)c(=O)n1 (stereo not drawn) [Compound 10C] | 87.5% |  | 34.5% |  |
| Nc1ncnc2c1ncn2C1OC(COP(=O)(O)OP(=O)(O)NCC2CNCC(n3cc(Cl)c(=O)[nH]c3=O)O2)C(O)C1O (stereo not drawn) [Compound 10ClU] | 46% |  | 47% |  |
| Nc1nc2c(ncn2C2CNCC(CNP(=O)(O)OP(=O)(O)OCC3OC(n4cnc5c(N)ncnc54)C(O)C3O)O2)c(=O)[nH]1 (stereo not drawn) [Compound 10G] | 74% | 224 µM |  |  |
| Cc1cn(C2CNCC(CNP(=O)(O)OP(=O)(O)OCC3OC(n4cnc5c(N)ncnc54)C(O)C3O)O2)c(=O)[nH]c1=O (stereo not drawn) [Compound 10T] |  | 136 µM |  | IC50 [1]: 220 µM |
| Nc1ncnc2c1ncn2C1OC(COP(=O)(O)OP(=O)(O)NCC2CNCC(n3ccc(=O)[nH]c3=O)O2)C(O)C1O (stereo not drawn) [Compound 10U] | 89% |  | 33% |  |
| Nc1ncnc2c1ncn2[C@H]1CNC[C@@H](CO)O1 [Compound 11A] | 82% |  | 90% |  |
| Nc1ccn([C@H]2CNC[C@@H](CO)O2)c(=O)n1 [Compound 11C] |  |  | 58% |  |
| Nc1nc2c(ncn2[C@H]2CNC[C@@H](CO)O2)c(=O)[nH]1 [Compound 11G] |  |  | 64% |  |
| O=c1ccn([C@@H]2O[C@H](CO)[C@@H](O)[C@H]2O)c(=O)[nH]1 [Urd, reference compound] |  |  |  | Residual PARP-2 activity [2]: 96% ± 10% |
